These results are taken from patent US10900089B2, “Methods for predicting drug responsiveness in cancer patients” (Oncology Venture ApS, priority 2017, dated 2021).

SMILES strings stand for the structures.

One test relates to NCI60 cancer cell lines. Description: NCI60 growth assay: growth inhibition (GI50) profiles of therapeutic agents and their similarity. The class given is cell-based, human. How it is done: The human tumor cell lines of the cancer screening panel may be grown in RPMI 1640 medium containing 5% fetal bovine serum and 2 mM L-glutamine. Cells may be inoculated into 96 well microtiter plates in 100 μL at plating densities ranging from 5,000 to 40,000 cells/well depending on the doubling time of individual cell lines. After cell inoculation, the microtiter plates may be incubated at 37° C., 5% CO2, 95% air and 100% relative humidity for 24 hours prior to addition of experimental agent (e.g., an anthracycline, such as doxorubicin, epirubicin, daunorubicin, or idarubicin, or an anthracycline-containing liposome, such as a doxorubicin-containing liposome (e.g., 2B3-101)). […]
Following agent addition (e.g., an anthracycline, such as doxorubicin, epirubicin, daunorubicin, or idarubicin, or an anthracycline-containing liposome, such as a doxorubicin-containing liposome (e.g., 2B3-101)), the plates may be incubated for an additional 48 h at 37° C., 5% CO2, 95% air, and 100% relative humidity. […] Bound stain may be subsequently solubilized with 10 mM trizma base, and the absorbance may be read on an automated plate reader at a wavelength of 515 nm. […] Percentage growth inhibition may be calculated as: [(Ti−Tz)/(C−Tz)]×100 for concentrations for which Ti>/=Tz [(Ti−Tz)/Tz]×100 for concentrations for which Ti<Tz […]

For another test, the system named is breast cancer. The test can be described thus: Clinical trial of 137 breast cancer patients treated with epirubicin (progression free survival, DRP validation). Format: in vivo, human. An excerpt: The biomarkers of sensitivity and resistance identified in Example 2 and shown in Tables 3 and 4 have been validated in a clinical trial of 137 breast cancer patients treated with epirubicin. Patients were examined every 9 to 12 weeks by CT scan and clinical evaluation. After patient informed consent, mRNA was isolated from formalin fixed paraffin embedded tumor tissue from diagnostic biopsies and analyzed using Affymetrix arrays. Blinded predictions of epirubicin efficacy were compared to clinical data collected retrospectively from patient medical records. Statistical analysis was performed using Cox proportional hazards model adjusted for treatment line. The primary endpoint was progression free survival (PFS). Median time to progression was 9.3 months (95% CI: 7.2-13.2). Of the 137 patients, four received epirubicin more than once.
The estimated hazard ratio was 0.56 (90% CI: 0.35-0.89) comparing two patients with DRP score differing by 50 percentage points. The estimated median time to progression for a patient with a DRP value of 25% was 7 months versus 13 months for a patient with a DRP value of 75%. No interaction with previous adjuvant chemotherapy was observed (p=0.98).

With `COc1cccc2c1C(=O)c1c(O)c3c(c(O)c1C2=O)C[C@@](O)(C(=O)CO)C[C@@H]3O[C@H]1C[C@H](N)[C@@H](O)[C@H](C)O1` [epirubicin], the “anti-tumor activity compared with doxorubicin” value in the test with NCI60 cancer cell lines was “nearly identical to that of doxorubicin”. The “Median time to progression” value in the test with breast cancer (137 breast cancer patients treated with epirubicin) was 9.3 months. The “estimated median time to progression” value is given as 7 months in the test on breast cancer (patient with a DRP value of 25%) and 13 months in the test on breast cancer (patient with a DRP value of 75%).

As for `CC(=O)[C@]1(O)Cc2c(O)c3c(c(O)c2[C@@H](O[C@H]2C[C@H](N)[C@H](O)[C@H](C)O2)C1)C(=O)c1ccccc1C3=O` [idarubicine, idarubicin], the “effect on the NCI60 tumor cell lines in multidimensional scaling plot of growth inhibition profiles” value in the test with NCI60 cancer cell lines (NCI60 growth assay, FIG. 1) is “slightly different effect on the NCI60 tumor cell lines”.
